1 compound from ChEMBL document CHEMBL5705899 (Biochem J, 2014) can be followed below.

Test [1] addresses Homeodomain-interacting protein kinase 1 (Homo sapiens) (UniProt Q86Z02). The experiment in a line: Inhibition of human HIPK1 at 1 uM using RBER-CHKtide as substrate in presence of 33P-ATP by ProQinase assay.
The target in test [2] is Interferon-induced, double-stranded RNA-activated protein kinase (Homo sapiens) (UniProt P19525). The experiment in a line: Inhibition of human EIF2AK2 at 1 uM using RB-CTF as substrate in presence of 33P-ATP by ProQinase assay.
Test [3] concerns the target High affinity nerve growth factor receptor (Homo sapiens) (UniProt P04629). The experiment in a line: Inhibition of human TRKA at 1 uM using PolyEY as substrate in presence of 33P-ATP by ProQinase assay.
For test [4], the target named is Serine/threonine-protein kinase MARK1 (Homo sapiens) (UniProt Q9P0L2). Put plainly: Inhibition of recombinant human N-terminal His6-tagged MARK1 (2 to 795 residues) expressed in baculovirus infected Sf21 cells assessed as remaining activity at 1 uM using KKKVSRSGLYRSPSMPENLNRPR as substrate incubated for 30 mins in presence of [gamma-33P]ATP by filter binding method relative to control.

The target of test [5] is Serine/threonine-protein kinase BRSK1 (Homo sapiens) (UniProt Q8TDC3). The experiment in a line: Inhibition of recombinant human N-terminal His6-tagged BRSK1 (2 to 778 residues) expressed in baculovirus infected Sf21 cells assessed as remaining activity at 1 uM using KKLNRTLSFAEPG as substrate incubated for 30 mins in presence of [gamma-33P]ATP by filter binding method relative to control.

The target in test [6] is Tyrosine-protein kinase JAK3 (Homo sapiens) (UniProt P52333). Put plainly: Inhibition of human JAK3 at 1 uM using poly(Ala,Glu,Lys,Tyr) as substrate in presence of 33P-ATP by ProQinase assay.
For test [7], the target named is Tyrosine-protein kinase receptor UFO (Homo sapiens) (UniProt P30530). The experiment in a line: Inhibition of human AXL at 1 uM using polyEy as substrate in presence of 33P-ATP by ProQinase assay.
The target of test [8] is Mitogen-activated protein kinase kinase kinase 5 (Homo sapiens) (UniProt Q99683). The experiment in a line: Inhibition of recombinant human N-terminal GST-tagged ASK1 (670 to 950 residues) expressed in Escherichia coli assessed as remaining activity at 1 uM using MBP as substrate incubated for 30 mins in presence of [gamma-33P]ATP by filter binding method relative to control.

For test [9], the target named is Serine/threonine-protein kinase 33 (Homo sapiens) (UniProt Q9BYT3). The experiment in a line: Inhibition of recombinant human N-terminal GST-tagged STK33 (1 to 514 residues) expressed in baculovirus infected Sf21 cells assessed as remaining activity at 1 uM using AALVRQMSVAFFFKKKKK as substrate incubated for 30 mins in presence of [gamma-33P]ATP by filter binding method relative to control.

In test [10] the target is Tyrosine-protein kinase Fyn (Homo sapiens) (UniProt P06241). Put plainly: Inhibition of human FYN at 1 uM using polyEY as substrate in presence of 33P-ATP by ProQinase assay.
Test [11] deals with Protein kinase C alpha type (Homo sapiens) (UniProt P17252). Put plainly: Inhibition of recombinant human N-terminal His6-tagged PKCalpha (1 to 672 residues) expressed in baculovirus infected Sf21 cells assessed as remaining activity at 1 uM using Histone H1 as substrate incubated for 30 mins in presence of [gamma-33P]ATP by filter binding method relative to control.
Test [12] has as its target Rho-associated protein kinase 2 (Homo sapiens) (UniProt O75116). The experiment in a line: Inhibition of human ROCK2 at 1 uM using RB-S6P as substrate in presence of 33P-ATP by ProQinase assay.
Test [13] deals with Myosin light chain kinase, smooth muscle (Homo sapiens) (UniProt Q15746). The experiment in a line: Inhibition of human MYLK at 1 uM using RB-S6P as substrate in presence of 33P-ATP by ProQinase assay.
Test [14] deals with Receptor tyrosine-protein kinase erbB-4 (Homo sapiens) (UniProt Q15303). The experiment in a line: Inhibition of human ERBB4 at 1 uM using polyEy as substrate in presence of 33P-ATP by ProQinase assay.
Test [15] concerns the target Ribosomal protein S6 kinase alpha-1 (Homo sapiens) (UniProt Q15418). Put plainly: Inhibition of recombinant human N-terminal His6-tagged RSK1 (1 to 735 residues) expressed in baculovirus infected Sf21 cells assessed as remaining activity at 1 uM using KKLNRTLSVA as substrate incubated for 30 mins in presence of [gamma-33P]ATP by filter binding method relative to control.

In test [16] the target is Serine/threonine-protein kinase BRSK1 (Homo sapiens) (UniProt Q8TDC3). The experiment in a line: Inhibition of human BRSK1 at 1 uM using RBER-CHKtide as substrate in presence of 33P-ATP by ProQinase assay.
Test [17] addresses PI3-kinase p110-alpha/p85-alpha (Homo sapiens, UniProt P42336). The experiment in a line: Inhibition of human PIK3CA/PIK3R1 using PIP2/PS as substrate by ADP-Glo assay. Format: protein-complex assay. (ADP-Glo first removes unused ATP, then detects ADP through luciferase.)
The target in test [18] is Ephrin type-B receptor 2 (Homo sapiens) (UniProt P29323). The experiment in a line: Inhibition of recombinant human N-terminal His6-tagged EPHB2 (560 to 987 residues) expressed in baculovirus infected Sf21 cells assessed as remaining activity at 1 uM using Poly (Glu,Tyr) as substrate incubated for 30 mins in presence of [gamma-33P]ATP by filter binding method relative to control.

Test [19] deals with Insulin receptor-related protein (Homo sapiens) (UniProt P14616). The experiment in a line: Inhibition of human INSRR at 1 uM using poly(Ala,Glu,Lys,Tyr) as substrate in presence of 33P-ATP by ProQinase assay.
Test [20] has as its target Dual specificity mitogen-activated protein kinase kinase 6 (Homo sapiens) (UniProt P52564). The experiment in a line: Inhibition of recombinant human N-terminal MBP-tagged MKK6 (2 to 334 residues) expressed in Escherichia coli assessed as remaining activity at 1 uM using SAPK2a as substrate incubated for 30 mins in presence of [gamma-33P]ATP by filter binding method relative to control.

Test [21] deals with Mitogen-activated protein kinase 14 (Homo sapiens) (UniProt Q16539). Put plainly: Inhibition of human p38alpha at 1 uM using ATF2 as substrate in presence of 33P-ATP by ProQinase assay.
In test [22] the target is Protein kinase C zeta type (Homo sapiens) (UniProt Q05513). The experiment in a line: Inhibition of recombinant human N-terminal His6-tagged PKCzeta (2 to 592 residues) expressed in baculovirus infected Sf21 cells assessed as remaining activity at 1 uM using ERMRPRKRQGSVRRV as substrate incubated for 30 mins in presence of [gamma-33P]ATP by filter binding method relative to control.

Test [23] concerns the target Testis-specific serine/threonine-protein kinase 2 (Homo sapiens) (UniProt Q96PF2). Put plainly: Inhibition of human TSK2 at 1 uM using RBER-CHKtide as substrate in presence of 33P-ATP by ProQinase assay.
For test [24], the target named is Fibroblast growth factor receptor 3 (Homo sapiens) (UniProt P22607). The experiment in a line: Inhibition of human FGFR3 at 1 uM using polyEY as substrate in presence of 33P-ATP by ProQinase assay.

pIC50: −log10 of the molar value. The source made the active and inactive calls. No cut-off for these calls is given here. Where only a bound is given, the exact number is not on record here.

Chain of Serine/threonine-protein kinase BRSK1 (Homo sapiens) (Q8TDC3 whole entry, the tested form may be a part): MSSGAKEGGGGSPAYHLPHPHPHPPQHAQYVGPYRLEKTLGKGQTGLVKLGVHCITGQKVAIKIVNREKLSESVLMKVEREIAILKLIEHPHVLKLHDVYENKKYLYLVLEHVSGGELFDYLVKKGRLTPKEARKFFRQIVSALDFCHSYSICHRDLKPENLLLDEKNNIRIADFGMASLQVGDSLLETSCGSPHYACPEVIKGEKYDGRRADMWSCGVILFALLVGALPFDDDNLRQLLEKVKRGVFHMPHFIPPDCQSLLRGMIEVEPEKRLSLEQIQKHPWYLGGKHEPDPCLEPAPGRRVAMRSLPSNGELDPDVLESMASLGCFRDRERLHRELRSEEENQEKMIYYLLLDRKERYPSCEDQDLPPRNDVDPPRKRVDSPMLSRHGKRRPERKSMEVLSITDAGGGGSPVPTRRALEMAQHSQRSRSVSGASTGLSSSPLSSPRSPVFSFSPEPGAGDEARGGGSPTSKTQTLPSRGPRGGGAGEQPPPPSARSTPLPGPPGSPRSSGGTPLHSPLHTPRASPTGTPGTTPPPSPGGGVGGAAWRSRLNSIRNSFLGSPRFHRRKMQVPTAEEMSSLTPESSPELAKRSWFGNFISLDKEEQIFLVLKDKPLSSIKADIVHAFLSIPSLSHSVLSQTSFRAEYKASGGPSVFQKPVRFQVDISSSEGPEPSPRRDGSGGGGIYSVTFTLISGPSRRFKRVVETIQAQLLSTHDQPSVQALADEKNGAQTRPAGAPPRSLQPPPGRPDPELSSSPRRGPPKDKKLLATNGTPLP
Chain of Insulin receptor-related protein (Homo sapiens) (P14616 27-742 limits assumed): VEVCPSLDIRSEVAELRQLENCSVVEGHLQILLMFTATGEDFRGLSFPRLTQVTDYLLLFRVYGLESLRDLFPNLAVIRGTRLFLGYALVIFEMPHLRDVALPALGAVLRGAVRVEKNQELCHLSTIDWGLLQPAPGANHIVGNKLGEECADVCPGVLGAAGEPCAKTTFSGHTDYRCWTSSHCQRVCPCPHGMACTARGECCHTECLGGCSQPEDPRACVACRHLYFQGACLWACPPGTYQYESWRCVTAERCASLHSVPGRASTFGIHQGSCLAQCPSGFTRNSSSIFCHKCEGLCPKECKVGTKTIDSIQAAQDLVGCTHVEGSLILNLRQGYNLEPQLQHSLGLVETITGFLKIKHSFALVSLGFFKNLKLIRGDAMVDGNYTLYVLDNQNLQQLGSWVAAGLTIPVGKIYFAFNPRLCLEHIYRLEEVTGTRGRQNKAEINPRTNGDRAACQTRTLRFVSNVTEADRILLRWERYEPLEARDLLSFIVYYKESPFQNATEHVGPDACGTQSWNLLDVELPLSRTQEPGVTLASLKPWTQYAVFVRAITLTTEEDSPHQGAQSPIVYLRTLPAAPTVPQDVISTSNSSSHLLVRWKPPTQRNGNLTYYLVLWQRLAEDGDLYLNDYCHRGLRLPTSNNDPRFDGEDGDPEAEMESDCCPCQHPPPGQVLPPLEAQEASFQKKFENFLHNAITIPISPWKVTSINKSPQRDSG
Chain of Insulin receptor-related protein (Homo sapiens) (P14616 747-1297 limits assumed): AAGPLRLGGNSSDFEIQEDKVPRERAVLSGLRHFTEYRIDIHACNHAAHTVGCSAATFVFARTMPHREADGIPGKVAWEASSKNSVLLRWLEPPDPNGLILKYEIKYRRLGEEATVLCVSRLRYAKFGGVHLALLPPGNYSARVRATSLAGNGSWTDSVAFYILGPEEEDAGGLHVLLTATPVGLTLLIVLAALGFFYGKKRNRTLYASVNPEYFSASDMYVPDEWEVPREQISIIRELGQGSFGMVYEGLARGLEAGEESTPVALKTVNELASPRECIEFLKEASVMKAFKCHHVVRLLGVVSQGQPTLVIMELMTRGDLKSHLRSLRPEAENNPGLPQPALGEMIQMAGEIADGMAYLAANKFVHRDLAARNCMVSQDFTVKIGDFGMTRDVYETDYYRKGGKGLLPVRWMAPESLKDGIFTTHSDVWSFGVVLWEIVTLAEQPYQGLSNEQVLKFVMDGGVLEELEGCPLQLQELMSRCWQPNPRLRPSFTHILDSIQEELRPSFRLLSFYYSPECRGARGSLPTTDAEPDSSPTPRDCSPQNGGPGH
Chain of Rho-associated protein kinase 2 (Homo sapiens) (O75116 whole entry, looked up): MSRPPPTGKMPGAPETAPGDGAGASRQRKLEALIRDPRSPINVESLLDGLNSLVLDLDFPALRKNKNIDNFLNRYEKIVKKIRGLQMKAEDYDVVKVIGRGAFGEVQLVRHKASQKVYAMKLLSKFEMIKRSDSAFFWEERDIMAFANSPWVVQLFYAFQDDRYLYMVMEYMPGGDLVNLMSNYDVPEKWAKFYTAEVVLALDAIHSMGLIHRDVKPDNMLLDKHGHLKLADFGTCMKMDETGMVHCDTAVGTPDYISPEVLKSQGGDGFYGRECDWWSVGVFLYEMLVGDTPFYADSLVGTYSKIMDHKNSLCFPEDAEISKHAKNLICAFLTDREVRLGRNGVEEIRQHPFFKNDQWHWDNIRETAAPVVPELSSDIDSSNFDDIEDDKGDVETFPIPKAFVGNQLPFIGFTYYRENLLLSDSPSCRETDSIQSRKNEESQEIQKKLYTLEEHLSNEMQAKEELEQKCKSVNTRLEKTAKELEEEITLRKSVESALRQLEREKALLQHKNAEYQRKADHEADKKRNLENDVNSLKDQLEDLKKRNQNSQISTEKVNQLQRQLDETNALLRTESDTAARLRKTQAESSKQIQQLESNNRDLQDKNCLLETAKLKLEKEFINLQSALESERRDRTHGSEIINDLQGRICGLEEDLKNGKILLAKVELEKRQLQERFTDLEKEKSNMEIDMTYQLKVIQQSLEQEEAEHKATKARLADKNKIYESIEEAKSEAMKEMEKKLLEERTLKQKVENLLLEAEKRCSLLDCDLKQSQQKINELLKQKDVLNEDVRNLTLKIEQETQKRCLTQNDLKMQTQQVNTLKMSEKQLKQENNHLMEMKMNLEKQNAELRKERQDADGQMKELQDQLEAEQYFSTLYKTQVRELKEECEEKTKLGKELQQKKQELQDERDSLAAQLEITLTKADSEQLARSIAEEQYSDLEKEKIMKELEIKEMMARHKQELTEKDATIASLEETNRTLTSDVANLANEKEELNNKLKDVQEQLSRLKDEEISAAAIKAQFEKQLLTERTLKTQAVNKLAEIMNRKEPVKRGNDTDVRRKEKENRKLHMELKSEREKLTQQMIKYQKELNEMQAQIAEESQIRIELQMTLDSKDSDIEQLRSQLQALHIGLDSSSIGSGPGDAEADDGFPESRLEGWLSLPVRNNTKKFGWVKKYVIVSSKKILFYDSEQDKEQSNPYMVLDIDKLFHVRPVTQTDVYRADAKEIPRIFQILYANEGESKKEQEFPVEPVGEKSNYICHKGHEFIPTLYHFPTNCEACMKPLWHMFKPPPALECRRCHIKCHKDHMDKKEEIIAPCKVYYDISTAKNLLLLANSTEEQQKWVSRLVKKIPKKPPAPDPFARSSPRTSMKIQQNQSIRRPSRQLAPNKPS
Chain of Tyrosine-protein kinase Fyn (Homo sapiens) (P06241 2-537 limits assumed): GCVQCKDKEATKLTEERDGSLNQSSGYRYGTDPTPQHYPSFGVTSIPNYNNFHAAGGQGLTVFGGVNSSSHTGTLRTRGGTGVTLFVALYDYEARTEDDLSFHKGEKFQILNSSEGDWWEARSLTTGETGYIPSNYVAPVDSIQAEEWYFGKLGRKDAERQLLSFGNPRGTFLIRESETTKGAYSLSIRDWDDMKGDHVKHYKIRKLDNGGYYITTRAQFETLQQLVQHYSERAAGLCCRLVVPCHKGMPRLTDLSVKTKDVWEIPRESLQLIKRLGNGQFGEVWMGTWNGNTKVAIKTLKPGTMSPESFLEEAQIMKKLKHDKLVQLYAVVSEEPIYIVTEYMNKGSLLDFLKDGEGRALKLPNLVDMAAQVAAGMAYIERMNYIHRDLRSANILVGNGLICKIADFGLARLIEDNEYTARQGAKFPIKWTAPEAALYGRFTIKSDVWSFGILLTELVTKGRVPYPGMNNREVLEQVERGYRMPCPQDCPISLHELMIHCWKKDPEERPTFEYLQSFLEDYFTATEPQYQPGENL
Chain of Protein kinase C zeta type (Homo sapiens) (Q05513 whole entry, the tested form may be a part): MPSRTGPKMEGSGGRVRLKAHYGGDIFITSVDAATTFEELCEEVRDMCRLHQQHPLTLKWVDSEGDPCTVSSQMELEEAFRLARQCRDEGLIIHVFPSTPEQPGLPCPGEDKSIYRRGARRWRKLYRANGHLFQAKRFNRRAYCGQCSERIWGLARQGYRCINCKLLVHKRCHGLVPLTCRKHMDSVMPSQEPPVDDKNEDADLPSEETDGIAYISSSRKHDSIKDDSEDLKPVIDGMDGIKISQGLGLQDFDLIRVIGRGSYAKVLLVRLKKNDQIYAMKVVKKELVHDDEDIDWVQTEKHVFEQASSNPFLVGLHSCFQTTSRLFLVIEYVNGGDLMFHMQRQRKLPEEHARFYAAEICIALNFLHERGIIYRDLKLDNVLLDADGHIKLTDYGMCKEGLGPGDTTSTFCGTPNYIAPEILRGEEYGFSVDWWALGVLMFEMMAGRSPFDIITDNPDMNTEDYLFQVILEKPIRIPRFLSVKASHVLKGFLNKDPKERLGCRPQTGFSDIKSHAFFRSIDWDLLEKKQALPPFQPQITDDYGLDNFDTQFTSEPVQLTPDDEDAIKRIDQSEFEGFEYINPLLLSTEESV
Chain of Serine/threonine-protein kinase 33 (Homo sapiens) (Q9BYT3 whole entry, looked up, the tested form may be a part): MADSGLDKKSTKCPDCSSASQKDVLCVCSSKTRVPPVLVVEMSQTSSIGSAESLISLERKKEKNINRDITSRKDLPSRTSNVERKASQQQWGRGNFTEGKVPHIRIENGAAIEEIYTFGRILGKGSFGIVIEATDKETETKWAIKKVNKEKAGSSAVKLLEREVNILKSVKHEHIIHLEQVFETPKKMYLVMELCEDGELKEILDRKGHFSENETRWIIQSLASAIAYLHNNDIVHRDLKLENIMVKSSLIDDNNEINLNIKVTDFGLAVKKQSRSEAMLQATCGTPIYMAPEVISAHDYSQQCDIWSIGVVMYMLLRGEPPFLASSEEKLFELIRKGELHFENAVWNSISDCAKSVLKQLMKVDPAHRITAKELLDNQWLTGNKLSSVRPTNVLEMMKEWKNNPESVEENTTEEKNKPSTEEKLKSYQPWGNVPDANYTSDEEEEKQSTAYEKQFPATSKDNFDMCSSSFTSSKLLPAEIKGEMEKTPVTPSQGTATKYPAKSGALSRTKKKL

In general, pIC50 refers to −log10 of the IC50, conventionally taken in molar units. Regarding `CC(C)(O)CNc1ncc(-c2ccnc(Nc3ccnc(Cl)c3)n2)c(CC2CC2)n1`, the inhibition entry in [1], in test [2], in [3], in test [6], in test [7] and in test [10] was “inactive” in each case. Besides, the inhibition entry in test [12], in [13], in [14], in test [16], in test [19] and in test [21] was “inactive” throughout. Also, the inhibition entry in [23] and in [24] was “inactive” throughout. The Activity was determined as 114% in [4]; 109% in test [5]; 124% in test [8]; 124% in test [9]; 119% in test [11]; 99% in test [15]. The figures for the Activity in test [18], in [20] and in [22] were 109%, 124% and 103%, respectively. In [17], the pIC50 is < 5.00.
